pIC50: −log10 of the molar value.
Key:
15-PGDH = biological target: T1, 15-PGDH (Homo sapiens, UniProt P15428); experiment: 15-PGDH enzyme inhibition assay (fluorescence, NAD+/PGE2); format: biochemical; conditions: 15-PGDH inhibition
T1 construct: purchased R&D Systems 5660-DH-010
T1 sequence (P15428 1-266): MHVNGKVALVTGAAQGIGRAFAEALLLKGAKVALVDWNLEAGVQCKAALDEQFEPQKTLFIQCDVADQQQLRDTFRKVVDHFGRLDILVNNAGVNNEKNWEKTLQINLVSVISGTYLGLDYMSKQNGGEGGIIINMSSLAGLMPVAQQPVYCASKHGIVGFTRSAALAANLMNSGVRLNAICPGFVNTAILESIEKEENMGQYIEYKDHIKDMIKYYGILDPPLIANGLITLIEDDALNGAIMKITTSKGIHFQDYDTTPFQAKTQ
Protocol: 15-PGDH (R&D Systems, Cat. No. 5660-DH-010) was prepared to twice the final concentration, i.e., 30 nM, using Assay Buffer (50 mM Tris-HCl, pH 7.5, 0.01% Tween 20 by volume). 15-PGDH was then added to a 384-well white plate (Cisbio Bioassays, Cat. No. 66PL384025) at 8 µL/well. Negative control wells (with Assay Buffer only and without enzyme) were set. The compound was then prepared to 4 times the final concentration using Assay Buffer, i.e., diluted 3-fold to 10 concentrations starting from 4000 nM. The compound was added to the above white plate at 4 µL/well, mixed well, centrifuged at 1000 rpm for 1 minute, and incubated at 25°C for 10 minutes. Both positive control wells (with 15-PGDH only) and negative control wells (without 15-PGDH) were set. A mixture of NAD^+ (Select, Cat. No. S2518) and PGE2 (R&D Systems, Cat. No.:2296110) was then prepared using Assay Buffer. NAD^+ and PGE2 were prepared to four times their final concentrations, i.e., 2 mM and 0.12 mM, respectively, using Assay Buffer. The mixture was then added to the above white plate at 4 µL/well, mixed well, centrifuged at 1000 rpm for 1 minute, and incubated at 25°C for 30 minutes for the reaction. The fluorescence was measured at an excitation wavelength of 340 nm and an emission wavelength of 485 nm using a TECAN SPARK 20M microplate reader. The IC50 value was calculated using four-parameter fitting with GraphPad Prism 8.0.

[1] = system: mouse IPF prevention model; experiment: Efficacy test on mouse IPF prevention model (Bleomycin-induced); format: in vivo, mice; conditions: mean; compound I-3B 2.5 mg/kg bid, oral gavage, 21 consecutive days
Protocol: Male mice were adaptively fed for 1 to 2 weeks and after reaching the standard weight (25 g), the IPF model (idiopathic pulmonary fibrosis model) was induced with a certain dose of Bleomycin. On the day of modeling, the animals were randomly divided into a model group and an administration group according to their weight, in which the administration groups were administered Nintedanib (60 mg/kg, once a day (qd)) and compound I-3B obtained in Example 1 (2.5 mg/kg, twice a day (bid)) by oral gavage for 21 consecutive days while the vehicle control group was administered blank vehicle. During the administration period, the animals were weighed every 3 days. At the end of the last day of administration, the animals were euthanized. The lungs were removed from the thyroid cartilage (without perfusion), slowly perfused with 10% formalin until both lungs were filled, and fixed in 10% formalin 5 to 10 times the volume of the tissues after the trachea was ligated. The left lung tissues were embedded in paraffin wax, sectioned, and stained with HE and Masson Trichrome. The sections were subjected to panoramic scanning using a Hamamatsu NanoZoomer Digital Pathology (S210) slide scanner for pathological analysis.

[2] = system: mouse IPF treatment model; experiment: Efficacy test on mouse IPF treatment model (Bleomycin-induced); format: in vivo, mice; conditions: mean, oral gavage, 14 consecutive days from day 7
Protocol: Male mice were adaptively fed for 1 to 2 weeks and after reaching the standard weight (25 g), the IPF model (idiopathic pulmonary fibrosis model) was induced with a certain dose of Bleomycin. On the day of modeling, the animals were randomly divided into a model group and an administration group according to their weight, in which the administration groups were administered Nintedanib (60 mg/kg, qd), low-dose compound I-3B obtained in Example 1 (1 mg/kg, bid), and high-dose compound I-3B obtained in Example 1 (2.5 mg/kg, bid) by oral gavage for 14 consecutive days starting from day 7 while the vehicle control group was administered blank vehicle. During the administration period, the animals were weighed twice a week. At the end of the last day of administration, the animals were euthanized. The lungs were removed from the thyroid cartilage (without perfusion), slowly perfused with 10% formalin until both lungs were filled, and fixed in 10% formalin 5 to 10 times the volume of the tissues after the trachea was ligated. The left lung tissues were embedded in paraffin wax, sectioned, and stained with HE and Masson Trichrome. The sections were subjected to panoramic scanning using a Hamamatsu NanoZoomer Digital Pathology (S210) slide scanner for pathological analysis.

[3] = Pharmacokinetics in mice (oral gavage); format: in vivo; conditions: mouse, plasma, male CD-1 mice, 10 mg/kg
Protocol: The pharmacokinetic properties of the compounds obtained in Example 1 in mice were determined with reference to the following experimental methods.
Three male CD-1 mice were administered by oral gavage at a dose of 10 mg/kg, and the vehicle was 5% DMSO + 10% Solutol + 85% Saline. The mice were fasted overnight, and the time points of blood collection were before administration and at 15 minutes, 30 minutes, 1 hour, 2 hours, 4 hours, 8 hours, and 24 hours after administration. Blood samples were centrifuged at 6,800 g for 6 minutes at 2 to 8°C, and plasma was collected and stored at - 80°C. 10 µL of plasma at each time point was taken and added with 200 µL of methanol containing 100 ng/mL internal standard. The mixture was vortexed, mixed well, and centrifuged at 18,000 g for 7 minutes at 2 to 8°C. 200 µL of the mixture was transferred to a 96-well injection plate for LC-MS/MS quantitative analysis. The main pharmacokinetic parameters were analyzed using WinNonlin 7.0 software with non-compartmental model.

IBD in mice = experiment: Efficacy on IBD in mice (DSS-induced); format: in vivo, C57BL/6 mice; conditions: for CL (colon length) / CL/CW/BW / CW (colon weight) / DAI / body weight / inflammatory cell infiltration score (histopathological examination of colon tissues) / tissue injury score (histopathological examination of colon tissues): compared with G2 model group; for Colon length CL / Colon weight CW: day 0 to day 9, necropsy day 10
Protocol: The mice in G2 to G6 were given 2% DSS aqueous solution on day 0 to day 6, normal water on […], vehicle/positive/test substance on day 0 to day 9, and euthanized on day 10 for necropsy. Colon weight (CW) and colon length (CL) were measured and colon tissues […] were subjected to histopathological examination.

## Cn1nc2cc(N3C[C@H]4C[C@H]4c4cc(C(=O)N5CCC(F)(F)CC5)cnc43)ccn2c1=O (single isomer, unassigned) [compound I-3B]
15-PGDH
  pIC50: 8.45
[1]
  Total pulmonary fibrosis score: 3.34
[2]; high-dose 2.5 mg/kg bid
  Total pulmonary fibrosis score: 2.6
[2]; low-dose 1 mg/kg bid
  Total pulmonary fibrosis score: 2.74
[3]
  AUC(0-t): 33200 ng·h/mL
  Cmax: 4480 ng/mL
IBD in mice; 2.5 mg/kg and 5 mg/kg, efficacy better than that of the positive control
  IBD symptoms and tissue injury in mice: significantly improve
IBD in mice; G4, 2.5 mg/kg-bid
  CL (colon length): significant increase
  CL/CW/BW: significant decrease
  CW (colon weight): significant decrease
  DAI: significant decrease
  body weight: increase
  inflammatory cell infiltration score (histopathological examination of colon tissues): significant decrease
  tissue injury score (histopathological examination of colon tissues): significant decrease
IBD in mice; G5, 5 mg/kg-bid
  CL (colon length): significant increase
  CL/CW/BW: significant decrease
  CW (colon weight): significant decrease
  DAI: significant decrease
  body weight: significant increase
  inflammatory cell infiltration score (histopathological examination of colon tissues): significant decrease
  tissue injury score (histopathological examination of colon tissues): significant decrease
IBD in mice; high-dose group (5 mg/kg)
  Colon length CL: 6.50 cm
  Colon weight CW: 0.16 g
IBD in mice; low-dose group (2.5 mg/kg)
  Colon length CL: 6.67 cm
  Colon weight CW: 0.17 g
